target: T1, γ-secretase (Homo sapiens, UniProt P49768); experiment: Cell-Based γ-Secretase Assay (Aβ(40)/Aβ(42) in media of SH-SY5Y cells overexpressing SPA4CT); details: Human SH-SY5Y neuroblastoma cells overexpressing SPA4CT; values given as ranges; read-out: IC50 values for Aβ(1-42) inhibition
T1 construct: Human SH-SY5Y neuroblastoma cells overexpressing the direct γ-secretase substrate SPA4CT; endogenous in cells; host or cells: human SH-SY5Y neuroblastoma cells (stably overexpressing the substrate SPA4CT, induced with sodium butyrate)
Description: Cell-Based γ-Secretase Assay
Human SH-SY5Y neuroblastoma cells overexpressing the direct γ-secretase substrate SPA4CT were induced with sodium butyrate (10 mM) for 4 hours prior to plating. Cells were plated at 35,000 cells/well/100 μl in 96-well plates in phenol red-free MEM/10% FBS, 50 mM HEPES, 1% Glutamine and incubated for 2 hrs at 37° C., 5% CO2.
Compounds for testing were diluted into Me2SO to give a ten point dose-response curve. Typically 10 μl of these diluted compounds in Me2SO were further diluted into 182 μl dilution buffer (phenol red-free MEM/10% FBS, 50 mM HEPES, 1% Glutamine) and 10 μl of each dilution was added to the cells in 96-well plates (yielding a final Me2SO concentration of 0.5%). Appropriate vehicle and inhibitor controls were used to determine the window of the assay.
After incubation overnight at 37° C., 5% CO2, 10 μl and 50 μl media were transferred into a fresh Costar round-bottom 96-well plate for detection of Aβ(40) and Aβ(42) peptides, respectively. 40 μl Origen buffer (PBS, 2% BSA, 0.2% Tween-20) was added to the Aβ(40) wells followed by the addition of 25 μl the respective antibody premixes to the wells: • Aβ(40) premix: 1 μg/ml ruthenylated G2-10 antibody, 4 μg/ml biotinylated 4G8 antibody diluted in Origen buffer • Aβ(42) premix: 0.5 μg/ml ruthenylated G2-11 antibody, 4 μg/ml biotinylated 4G8 antibody diluted in Origen buffer
(Biotinylated 4G8 Antibody Supplied by Signet Pathology Ltd; G2-10 and G2-11 Antibodies Supplied by Chemicon)
After overnight incubation of the assay plates on a shaker at 4° C., the Origen M8 Analyser (Igen Inc.) was calibrated according to the manufacturer's instructions. 25 μl of streptavidin magnetic bead (Dynal) premix (400 μg/ml streptavidin beads/ml in Origen buffer) was added to the assay plates and incubated on a shaker for 15 minutes. 150 μl Origen buffer was added to each well and the plates were read on the Origen M8 Analyser according to the manufacturer's instructions.
Cell viability was measured in the corresponding cells after removal of the media for the Aβ assays by a colorimetric cell proliferation assay (CellTiter 96™ AQ assay, Promega) utilizing the bioreduction of MTS (Owen's reagent) to formazan according to the manufacturer's instructions. Briefly, 5 μl of 10×MTS/PES was added to the remaining 50 μl of media before returning to the incubator. The optical density was read at 495 nm after ˜4 hours.
LD50 and IC50 values for inhibition of Aβ(40) and Aβ(42) were calculated by nonlinear regression fit analysis using the appropriate software (eg. Excel fit). The total signal and the background were defined by the corresponding Me2SO and inhibitor controls.

With CC(C)(C)CC[C@H](CCC(F)(F)F)N1CCC(F)(F)[C@H](CC(=O)O)[C@H]1c1ccc(C(F)(F)F)cc1 (single isomer, unassigned) [Example 18, {1-[4,4-dimethyl-1-(3,3,3-trifluoropropyl)pentyl]-4,4-difluoro-2-[4-(trifluoromethyl)phenyl]piperidin-3-yl}acetic acid] as the compound, how does the IC50 read?
The IC50 was less than 500 nM.

For CC(C)(C)C#C[C@H](CCC(F)(F)F)N1CCC(F)(F)[C@H](CC(=O)O)[C@H]1c1ccc(C(F)(F)F)cc1 (single isomer, unassigned) [Example 19, {1-[4,4-dimethyl-1-(3,3,3-trifluoropropyl)pent-2-yn-1-yl]-4,4-difluoro-2-[4-(trifluoromethyl)phenyl]piperidin-3-yl}acetic acid], which IC50 is on record?
The IC50 was less than 500 nM.

For CC(C)(C)C#CCN1[C@H](c2ccc(C(F)(F)F)cc2)[C@@H](CC(=O)O)C(F)(F)C[C@H]1c1ccc(C(F)(F)F)cc1 (relative stereo) [Example 23, {1-(4,4-dimethylpent-2-yn-1-yl)-4,4-difluoro-2,6-bis[4-(trifluoro-methyl)phenyl]piperidin-3-yl}acetic acid], which IC50 is on record?
The IC50 was 2000 to 3000 nM.

With CC(C)CC[C@H](c1ccc(C(F)(F)F)cc1)N1CCC(F)(F)[C@H](CC(=O)O)[C@H]1c1ccc(C(F)(F)F)cc1 (relative stereo) [Example 8, {4,4-difluoro-1-(4-methyl-1-[4-(trifluoromethyl)phenyl]pentyl}-2-[4-(trifluoromethyl)phenyl]piperidin-3-yl}acetic acid] as the compound, how does the IC50 read?
Its IC50 is 2000 to 3000 nM.

For CC(C)(C)/C=C\[C@H](CC(C)(C)C)N1CCC(F)(F)[C@H](CC(=O)O)[C@H]1c1ccc(C(F)(F)F)cc1 (relative stereo) [Example 12, {1-[(2Z)-1-(2,2-dimethylpropyl)-4,4-dimethylpent-2-en-1-yl]-4,4-difluoro-2-[4-(trifluoromethyl)phenyl]piperidin-3-yl}acetic acid], which IC50 is on record?
Its IC50 is 2000 to 3000 nM.

How did the IC50 turn out when CC(C)(C)CC[C@H](CCC(F)(F)F)N1CCC(F)(F)[C@H](CC(=O)O)[C@H]1c1ccc(C(F)(F)F)cc1 (single isomer, unassigned) [Example 22, {1-[4,4-dimethyl-1-(3,3,3-trifluoropropyl)pentyl]-4,4-difluoro-2-[4-(trifluoromethyl)phenyl]piperidin-3-yl}acetic acid] was run?
The IC50 was 1000 to 1500 nM.

CC(C)(C)/C=C\[C@H](CCC(F)(F)F)N1CCC(F)(F)[C@H](CC(=O)O)[C@H]1c1ccc(C(F)(F)F)cc1 (relative stereo) [Example 20, {1-[(2Z)-4,4-dimethyl-1-(3,3,3-trifluoropropyl)pent-2-en-1-yl]-4,4-difluoro-2-[4-(trifluoromethyl)phenyl]piperidin-3-yl}acetic acid] was tested. Which IC50 did it give?
The IC50 was less than 500 nM.

Which IC50 does the source give for CC(C)(C)/C=C\[C@H](CCC(F)(F)F)N1CCC(F)(F)[C@H](CC(=O)O)[C@H]1c1ccc(C(F)(F)F)cc1 [Example 6, {1-[(2Z)-4,4-dimethyl-1-(3,3,3-trifluoropropyl)pent-2-en-1-yl]-4,4-difluoro-2-[4-(trifluoromethyl)phenyl]piperidin-3-yl}acetic acid] here?
The IC50 was 1000 to 1500 nM.

How did the IC50 turn out when CC(C)(C)CCCN1[C@H](c2ccc(C(F)(F)F)cc2)[C@@H](CC(=O)O)C(F)(F)C[C@H]1c1ccc(C(F)(F)F)cc1 (relative stereo) [Example 24, {1-(4,4-dimethylpentyl)-4,4-difluoro-2,6-bis[4-(trifluoromethyl)phenyl]piperidin-3-yl}acetic acid] was run?
The IC50 was 1000 to 1500 nM.

For CC(C)(C)C[C@@H](CCc1ccc(C(F)(F)F)cc1)N1CCC(F)(F)[C@H](CC(=O)O)[C@H]1c1ccc(C(F)(F)F)cc1 (relative stereo) [Example 14, {1-(3,3-dimethyl-1-{2-[4-(trifluoromethyl)phenyl]ethyl}butyl)-4,4-difluoro-2-[4-(trifluoromethyl)phenyl]piperidin-3-yl}acetic acid], which IC50 is on record?
The IC50 was 2000 to 3000 nM.

For CC(C)(C)C#C[C@H](CCCC(C)(C)C)N1CCC(F)(F)[C@H](CC(=O)O)[C@H]1c1ccc(C(F)(F)F)cc1 (relative stereo) [Example 17, {1-[1-(3,3-dimethylbut-1-yn-1-yl)-5,5-dimethylhexyl]-4,4-difluoro-2-[4-(trifluoromethyl)phenyl]piperidin-3-yl}acetic acid], which IC50 is on record?
The IC50 was 1000 to 1500 nM.

Which IC50 does the source give for CC(C)(C)CC[C@H](CC(C)(C)C)N1CCC(F)(F)[C@H](CC(=O)O)[C@H]1c1ccc(C(F)(F)F)cc1 (relative stereo) [Example 11, {1-[1-(2,2-dimethylpropyl)-4,4-dimethylpentyl]-4,4-difluoro-2-[4-(trifluoromethyl)phenyl]-piperidin-3-yl}acetic acid] here?
The IC50 was 1500 to 2000 nM.

Which IC50 does the source give for CC(C)(C)CC[C@H](c1ccc(C(F)(F)F)cc1)N1CCC(F)(F)[C@H](CC(=O)O)[C@H]1c1ccc(C(F)(F)F)cc1 (relative stereo) [Example 1, {1-{4,4-dimethyl-1-[4-(trifluoromethyl)phenyl]pentyl}-4,4-difluoro-2-[4-(trifluoromethyl)phenyl]piperidin-3-yl}acetic acid] here?
The IC50 was 1000 to 1500 nM.

C=C(C)C#C[C@H](CCC(F)(F)F)N1CCC(F)(F)[C@H](CC(=O)O)[C@H]1c1ccc(C(F)(F)F)cc1 (relative stereo) [Example 2, {4,4-difluoro-1-[4-methyl-1-(3,3,3-trifluoropropyl)pent-4-en-2-yn-1-yl]-2-[4-(trifluoromethyl)phenyl]piperidin-3-yl}acetic acid] was tested. Which IC50 did it give?
Its IC50 is 1500 to 2000 nM.

With C=C(C)C#C[C@H](CCC(=C)C)N1CCC(F)(F)[C@H](CC(=O)O)[C@H]1c1ccc(C(F)(F)F)cc1 (relative stereo) [Example 7, {4,4-difluoro-1-[4-methyl-1-(3-methylbut-3-en-1-yl)pent-4-en-2-yn-1-yl]-2-[4-(trifluoromethyl)phenyl]piperidin-3-yl}acetic acid] as the compound, how does the IC50 read?
The IC50 was 1500 to 2000 nM.

Which IC50 does the source give for CC(C)(C)CCC(CCC(C)(C)C)N1CCC(F)(F)[C@H](CC(=O)O)[C@H]1c1ccc(C(F)(F)F)cc1 (relative stereo) [Example 15, {1-[1-(3,3-dimethylbutyl)-4,4-dimethylpentyl]-4,4-difluoro-2-[4-(trifluoromethyl)phenyl]piperidin-3-yl}acetic acid] here?
The IC50 was 1500 to 2000 nM.
